The values below come from patent US20050019825A9, “Common ligand mimics: pseudothiohydantoins” (priority 2002, published 2005).

For experiment [1], the target named is glyceraldehyde-3-phosphate dehydrogenase (GAPDH) (Escherichia coli, UniProt P0A9B2). Put plainly: GAPDH kinetic assay, spectrophotometric reduction of NAD+ (340 nm). It counts as biochemical, E. coli. Particulars: for inhibition of GAPDH (in words): Example 24 (FIG. 6). As to the method: For GAPDH analysis, the compounds were screened using a kinetic protocol that spectrophotometrically evaluates reduction of NAD+.
Chain of glyceraldehyde-3-phosphate dehydrogenase (GAPDH) (P0A9B2 whole entry): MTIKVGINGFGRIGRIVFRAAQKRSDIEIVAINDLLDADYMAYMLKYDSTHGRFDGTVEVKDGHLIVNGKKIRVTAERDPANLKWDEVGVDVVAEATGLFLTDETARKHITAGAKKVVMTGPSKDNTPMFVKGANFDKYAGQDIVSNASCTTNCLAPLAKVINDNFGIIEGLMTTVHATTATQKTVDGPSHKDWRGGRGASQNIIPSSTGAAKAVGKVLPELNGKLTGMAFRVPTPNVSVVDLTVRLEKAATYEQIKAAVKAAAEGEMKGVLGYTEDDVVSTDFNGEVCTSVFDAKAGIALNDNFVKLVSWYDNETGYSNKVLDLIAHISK
Stock solutions of each of the reagents were prepared in the following concentrations. Dilutions of the stock solutions were prepared prior to running the assay in the concentrations indicated below.
The GAPDH reaction was monitored at 340 nm prior to and after addition of the inhibitor to detect background reaction with the inhibitor. Solutions of 100 μl of the inhibitors incubated for 6 minutes at 25° C. in a 990 μl of a solution containing 125 mM triethanolamine, pH 7.5, 145 μM glyceraldehyde 3-phosphate (GAP), 0.211 mM NAD, 5 mM sodium arsenate, and 3 mM β-metcaptoethanol (2-BME). The reaction was then initiated with 10 μl of E. coli GAPDH (1:200 dilution of 1.0 mg/ml). After the enzyme was added, the solution was mixed for 20 seconds, and the reaction was run for 10minutes. After a 50 second lag, the samples were read in a Cary spectrophotometer at 340 nm. Reading of the samples was continued until 300 seconds. The final concentration of DMSO in a cuvette was about 5% of the total assay volume. Cuvette #1 contained the control reaction (no inhibitor).
GAP for use in this experiment was deprotected from the diethyl acetal in the following manner. Water was boiled in recrystallizing dish. Dowex (1.5 mg) and GAP (200 mg; SIGMA G-5376) were weighed and placed in a 15 ml conical tube. The Dowex and GAP were resuspended in 2 ml dH2O, followed by shaking of the tube until the GAP dissolved. The tube was then immersed, while shaking, in the boiling water for 3 minutes. Next, the tube was placed in an ice bath to cool for 5 minutes. As the sample cooled, a resin settled to the bottom of the test tube, allowing removal of the supernatant with a pasteur pipette. The supernatant was filtered through a 0.45 or 0.2 μM cellulose acetate syringe filter.
The filtered supernatant was retained, and another 1 ml of dH2O was added to the resin tube. The tube was then shaken and centrifuged for 5 minutes at 3,000 rpm. The supernatant was again removed with a pasteur pipette and passed through a 0.45 or 0.2 μM cellulose acetate syringe filter. The two supernatant aliquots were then pooled to provide a total GAP concentration of about 50 mM. The GAP was then divided into 100 μl aliquots and stored at −20° C. until use.

For experiment [2], the target named is dihydrodipicolinate reductase (DHPR) (Escherichia coli, UniProt P04036). Kind of experiment: DHPR kinetic assay, spectrophotometric oxidation of NADPH (340 nm). The experiment is classed as biochemical. As for the experimental part:
For DHPR analysis, the compounds were screened using a kinetic protocol that spectrophotometrically evaluates oxidation of NADPH.
Stock solutions of each of the reagents were prepared in the following concentrations. Dilutions of the stock solutions were prepared prior to running the assay in the concentrations indicated below. DHPR was diluted in 10 mM HEPES at a pH of 7.4. DHPS (dihydrodipicolinate synthase) was not diluted and was stored in eppindorf tubes.
The L-ASA (L-aspartate semialdehyde) solution was prepared in the following manner. 180 μM stock solution of ASA was prepared. 100 μl of the ASA stock solution was mixed with 150 μl of concentrated NaHCO3 and 375 μl of H2O. For use in the assay, 28.8 mM L-ASA was equal to 625 μl of the solution. The L-ASA stock solution was kept at a temperature of −20° C. After dilution, the pH of the 28.8 mM solution was checked and maintained between 1 and 2.
The DHPS reaction was monitored at 340 nm prior to and after addition of the inhibitor to detect background reaction with the inhibitor. The solution for background detection was a 945 μl solution containing 0.1 HEPES (pH 7.8), 1 mM pyruvate, 6 μM NADPH, 40 μM L-ASA, and 7 μl of 1 mg/ml DHPS at 25° C. in the volumes provided above. The sample solution was then mixed and incubated for 10 minutes. Next, 500 nM solutions of the inhibitors and enough DMSO to provide a final DMSO concentration of 5% of the total assay volume were added. The solution was mixed and incubated for an additional 6 minutes.
In DHPR samples, 5 μl of the diluted DHPR enzyme were added. The sample was mixed for 20 seconds and then the reaction was run for 10 minutes. After a 50 second lag, the samples were read in a Cary spectrophotometer at 340 nm. Reading of the samples was continued until 300 seconds. Cuvette #1 contained the control reaction (no inhibitor), and cuvette #2 contained the positive control reaction in which Cibacron Blue at 2.58 μM was substituted for inhibitor to yield 70 to 80% inhibition. The substrate was kept at a level at least 10 times the Km. The final concentration of L-ASA was about 1 mM.

Where [3] appears, read: common ligand mimics, Examples 23/24 (FIG. 5, FIG. 6), read-out: IC50 for DHPR.

Like-named read-outs stand apart in the source and are kept apart here.

Chain of dihydrodipicolinate reductase (DHPR) (P04036 whole entry): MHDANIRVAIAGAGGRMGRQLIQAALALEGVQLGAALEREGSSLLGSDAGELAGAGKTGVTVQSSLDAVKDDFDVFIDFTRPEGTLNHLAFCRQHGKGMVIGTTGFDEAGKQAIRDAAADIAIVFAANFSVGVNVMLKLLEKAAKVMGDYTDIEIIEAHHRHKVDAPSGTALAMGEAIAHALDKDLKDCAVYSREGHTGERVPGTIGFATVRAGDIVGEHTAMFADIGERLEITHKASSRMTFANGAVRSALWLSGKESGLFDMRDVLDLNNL

In the case of `N=C1NC(=O)C(=Cc2ccc(C(=O)O)cc2)S1` [4-(2-imino-4-oxo-thiazolidin-5-ylidenemethyl)-benzoic acid], the “inhibition of GAPDH (in words)” value in experiment [1] is on record as “no inhibition”. Also, the IC50 in experiment [1] (common ligand mimics, Examples 23/24, E. coli GAPDH, read-out: IC50 for GAPDH) is over 100 µM; in experiment [2] (setting [3]), over 25 µM.
As for `COc1cc(O)ccc1C=C1SC(=N)NC1=O` [5-(4-hydroxy-2-methoxy-benzylidene)-2-imino-thiazolidin-4-one], the “inhibition of GAPDH (in words)” value in experiment [1] is listed as “no inhibition”. Further, the IC50 in experiment [2] (setting [3]) was over 75 µM.
For `COc1cc(C=C2SC(N)=NC2=O)ccc1O` [5-(4-hydroxy-3-methoxy-benzylidene)-2-imino-thiazolidin-4-one], the IC50 in experiment [2] was over 75 µM.
As to `N=C1NC(=O)C(=Cc2ccc(O)c([N+](=O)[O-])c2)S1` [5-(4-hydroxy-3-nitro-benzylidene)-2-imino-thiazolidin-4-one], the IC50 is 153 µM in experiment [1] and over 100 µM in experiment [2].
Turning to `Nc1c(S(=O)(=O)O)cc(Nc2ccc(Nc3nc(Cl)nc(Nc4ccccc4S(=O)(=O)O)n3)c(S(=O)(=O)O)c2)c2c1C(=O)c1ccccc1C2=O` [Cibacron Blue, reference compound], the inhibition at 2.58 µM in experiment [2] (Cibacron Blue at 2.58 μM, read-out: inhibition of DHPR, positive control) was 70 to 80%.

By IC50 is commonly meant the midpoint of a concentration-inhibition curve. A word on the inhibition: it is the percentage by which the read-out fell short of the control.
